Tests used:
JAK3 = biological target: T1, JAK3 (Homo sapiens, UniProt P52333); experiment: Cell-based tyrosine phosphorylation of Jak kinases (IP/immunoblot); parameters: endogenous in cells; host or cells: DU145 and CWR22Pc; conditions: 6 µM, 6 h
T1 sequence (P52333 1-1124): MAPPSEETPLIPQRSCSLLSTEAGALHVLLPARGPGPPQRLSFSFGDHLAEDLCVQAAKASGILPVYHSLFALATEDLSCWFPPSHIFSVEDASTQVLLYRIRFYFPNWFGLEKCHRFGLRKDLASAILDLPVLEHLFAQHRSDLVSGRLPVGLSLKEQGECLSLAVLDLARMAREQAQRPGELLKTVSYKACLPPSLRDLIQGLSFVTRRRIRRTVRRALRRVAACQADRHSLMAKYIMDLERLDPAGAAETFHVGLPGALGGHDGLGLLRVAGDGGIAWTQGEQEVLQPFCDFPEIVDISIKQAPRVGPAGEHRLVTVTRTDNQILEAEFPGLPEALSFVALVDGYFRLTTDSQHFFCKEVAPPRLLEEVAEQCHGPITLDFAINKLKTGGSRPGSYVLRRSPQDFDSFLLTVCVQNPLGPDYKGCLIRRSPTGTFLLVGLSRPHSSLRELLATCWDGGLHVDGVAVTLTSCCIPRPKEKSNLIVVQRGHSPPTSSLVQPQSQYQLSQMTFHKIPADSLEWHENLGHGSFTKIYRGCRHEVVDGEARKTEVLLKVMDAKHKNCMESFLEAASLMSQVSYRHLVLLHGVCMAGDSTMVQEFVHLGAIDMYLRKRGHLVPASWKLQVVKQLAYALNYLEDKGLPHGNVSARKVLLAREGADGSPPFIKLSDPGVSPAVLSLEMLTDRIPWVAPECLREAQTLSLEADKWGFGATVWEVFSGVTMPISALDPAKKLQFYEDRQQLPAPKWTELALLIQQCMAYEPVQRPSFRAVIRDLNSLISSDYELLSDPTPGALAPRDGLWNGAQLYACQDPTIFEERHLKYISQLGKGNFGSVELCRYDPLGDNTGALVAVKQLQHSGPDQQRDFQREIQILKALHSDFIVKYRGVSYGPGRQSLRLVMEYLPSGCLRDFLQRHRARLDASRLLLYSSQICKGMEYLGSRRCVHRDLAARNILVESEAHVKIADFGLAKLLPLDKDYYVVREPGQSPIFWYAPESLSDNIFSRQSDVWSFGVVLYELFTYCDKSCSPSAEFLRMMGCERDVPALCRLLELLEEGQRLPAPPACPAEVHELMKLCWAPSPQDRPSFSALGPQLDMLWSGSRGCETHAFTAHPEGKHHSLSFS
From the text: (§1) Figure 5 Both IST5 and IST5-M suppress dimerization of Stat5 with similar efficacies in prostate cancer cells. (A), IST5 and IST5-M inhibit equally potently dimerization of Stat5 in native-gel-based Stat5 dimerization assay. CWR22Rv1 cells were transfected with STAT5A-eYFP (Stat5 wild type), STAT5A-N642H-eYFP (constitutive activated Stat5 by N642H mutation, as a positive control) or STAT3-eYFP (Stat3 wild type, as a negative control) constructs for 3 days. CWR22Rv1 cells were serum-starved for 16 h, pretreated with vanadate (1 mM) for 2 h, followed by treatment with vehicle, IST5 and IST5-M (1 µM) for 6 h and stimulation with Prl (10 nM) for 1 h. Dimerization of Stat5 was analyzed by detection of the eYFP fluorescence of the native Coomassie gel. (B), IST5 and IST5-M inhibited cytokine-induced dimerization of Stat5 with high efficacy in PC cells. PC-3 cells were co-transfected with pCMV-3Flag-Stat5a, pCMV-3Myc-Stat5a, and pPrlR plasmids. Cells were serum-starved for 16 h, pretreated with IST5, IST5-M or vehicle at indicated concentrations for 2 h, followed by stimulation with Prl (10 nM) for 30 min. Anti-MYC mAb was utilized to immunoprecipitate the MYC-tagged Stat5a and blotted with anti-FLAG mAb or anti-MYC mAb, as indicated. […] (C), densitometric analyses of the Stat5 dimerization data based on co-immunoprecipitations and immunoblotting in (B). […] Prostate cancer cells were treated with IST5 (6 µM) or vehicle for 6 h. Jak1, Jak2, Jak3 and Tyk2 were immunoprecipitated and blotted with anti-phospho-tyrosine, Jak1, Jak2, Jak3 and Tyk2 antibodies. Whole cell lysates (WCL) were immunoblotted for actin. (E), differences in posttranslational modifications were detected between native and recombinant STAT5a using mass spectrometry. Native STAT5a from CWR22Rv1 cells and recombinant STAT5a from E. coli were gel-purified, digested using trypsin, and analyzed by bottom-up mass spectrometry. Native full-length STAT5a (blue) is show with recombinant STAT5A highlighted (red). Sites of acetylation and phosphorylation from the respective sources are noted including two previously published sites of phosphorylation (asterisk).
(§2) Given that IST5 suppresses phosphorylation of Stat5 in PC cells, it is possible that IST5 inhibits the kinase(s) responsible for Stat5 phosphorylation and activation in PC cells. To evaluate if IST5 affects kinase activity in cancer cells, we tested kinase inhibitory activity of IST5 in two custom-tailored panels including 54 relevant kinases (Table 1), including Jak1, Jak2, Jak3, Tyk2, Abl1, Abl2, Lck, Fyn, Src and TrkB/C. In addition, we further tested if IST5 inhibits tyrosine phosphorylation of Jak1, Jak2, Jak3 or Tyk2 using a cell-based assay (Figure 5D), where phosphorylation of the kinase is indicative of enzymatic kinase activity. DU145 and CWR22Rv1 cells were treated with IST5 (6 µM) for 6 h followed by immunoprecipitation of Jak1, Jak2, Jak3 and Tyk2 and immunoblotting with anti-phospho-tyrosine antibody. […] Collectively, these findings indicate that the inhibitory effect of IST5 on Stat5 phosphorylation in cancer cells is not due to inhibition of Jak2 or other key kinases including Jak1, Jak3, Tyk2, Src, Lck, Fyn, TrkB/C, Abl1 or Abl2 (Table 1, Figure 5D).
(§3) Cell pellets were solubilized in the lysis buffer (10 mM Tris-HCl (pH 7.6), 5 mM EDTA, 50 mM sodium chloride, 30 mM sodium pyrophosphate, 50 mM sodium fluoride, 1 mM sodium orthovanadate, 1% Triton X-100, 1 mM phenylmethylsulfonyl fluoride, 5 µg/mL aprotinin, 1 µg/mL pepstatin A and 2 µg/mL leupeptin), and protein concentrations of clarified cell lysates were determined by a simplified Bradford method (Bio-Rad, Hercules, CA, USA). The whole cell lysates were immunoprecipitated with polyclonal antibodies (Table S1) followed by incubation with protein A-Sepharose beads (GE Healthcare, Chicago, IL, USA). […]

JAK2 = JAK2 (Homo sapiens, UniProt O60674); experiment: as above; parameters: endogenous in cells; host or cells: DU145 and CWR22Pc; conditions: 6 µM, 6 h
From the text: as §1, §2, §3

Chain of JAK2 (O60674 whole entry): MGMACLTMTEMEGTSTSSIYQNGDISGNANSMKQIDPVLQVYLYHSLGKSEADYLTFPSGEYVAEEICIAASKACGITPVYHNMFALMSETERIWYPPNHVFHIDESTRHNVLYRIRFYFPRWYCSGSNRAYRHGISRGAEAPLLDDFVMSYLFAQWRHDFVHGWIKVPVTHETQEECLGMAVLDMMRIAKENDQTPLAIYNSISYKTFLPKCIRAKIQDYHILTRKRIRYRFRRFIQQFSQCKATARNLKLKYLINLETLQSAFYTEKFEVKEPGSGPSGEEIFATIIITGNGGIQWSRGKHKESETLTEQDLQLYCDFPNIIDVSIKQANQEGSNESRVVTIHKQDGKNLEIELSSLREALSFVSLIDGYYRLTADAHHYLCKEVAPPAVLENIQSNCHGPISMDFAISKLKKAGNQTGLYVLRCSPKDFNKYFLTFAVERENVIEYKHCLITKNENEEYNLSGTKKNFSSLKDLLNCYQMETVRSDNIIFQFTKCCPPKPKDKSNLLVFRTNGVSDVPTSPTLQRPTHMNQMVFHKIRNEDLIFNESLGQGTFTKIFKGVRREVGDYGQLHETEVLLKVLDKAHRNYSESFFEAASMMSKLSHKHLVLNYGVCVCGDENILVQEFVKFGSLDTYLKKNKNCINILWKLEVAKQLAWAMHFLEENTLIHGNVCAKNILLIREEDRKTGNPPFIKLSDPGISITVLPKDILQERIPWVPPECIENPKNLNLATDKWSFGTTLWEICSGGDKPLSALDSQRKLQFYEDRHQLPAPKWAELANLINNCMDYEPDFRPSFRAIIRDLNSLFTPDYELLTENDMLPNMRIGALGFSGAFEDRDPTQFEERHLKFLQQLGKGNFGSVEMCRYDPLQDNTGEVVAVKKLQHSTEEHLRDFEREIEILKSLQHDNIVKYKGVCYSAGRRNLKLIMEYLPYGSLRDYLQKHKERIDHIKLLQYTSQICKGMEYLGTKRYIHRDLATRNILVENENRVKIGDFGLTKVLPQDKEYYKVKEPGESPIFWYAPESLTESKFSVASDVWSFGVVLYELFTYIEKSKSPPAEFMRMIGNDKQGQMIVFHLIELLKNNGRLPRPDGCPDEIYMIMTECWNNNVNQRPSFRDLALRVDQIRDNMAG

O=P(O)(O)OCC1OC(n2cnc3c(NCc4ccccc4)ncnc32)C(O)C1O (stereo not shown) [IST5]
did not alter: phosphorylation of Jak3 (JAK3; CWR22Pc cells) | phosphorylation of Jak3 (JAK3; DU145 cells) | phosphorylation of Jak2 (JAK2; CWR22Pc cells) | phosphorylation of Jak2 (JAK2; DU145 cells)
